Measurements published in ChEMBL document CHEMBL1127612, “Maleimidoethyl 3-(tri-n-butylstannyl)hippurate: a useful radioiodination reagent for protein radiopharmaceuticals to enhance target selective radioactivity localization” (J Med Chem, 1994).

Experiments:
Conditions in all cases: in vivo
[1] = test system: Mus musculus; experiment: Tested for biodistribution of radioactivity after 1 hr of intravenous injection in mice blood; format: ADME, organism-based
[2] = test system: Mus musculus; experiment: Tested for biodistribution of radioactivity after 24 hr of intravenous injection in mice stomach; format: ADME, organism-based
[3] = test system: Mus musculus; experiment: Tested for biodistribution of radioactivity after 6 hr of intravenous injection in mice lung; format: ADME, organism-based
[4] = test system: Mus musculus; experiment: Tested for biodistribution of radioactivity after 6 hr of intravenous injection in mice stomach; format: ADME, organism-based
[5] = test system: Mus musculus; experiment: Tested for biodistribution of radioactivity after 1 hr of intravenous injection in mice kidneys; format: ADME, organism-based, Kidney
[6] = test system: Mus musculus; experiment: Tested for biodistribution of radioactivity after 3h of intravenous injection in mice neck; format: ADME, organism-based
[7] = test system: Mus musculus; experiment: Tested for biodistribution of radioactivity after 24 hr of intravenous injection in mice blood; format: ADME, organism-based
[8] = test system: Mus musculus; experiment: Tested for biodistribution of radioactivity after 3h of intravenous injection in mice lung; format: ADME, organism-based
[9] = test system: Mus musculus; experiment: Tested for biodistribution of radioactivity after 3h of intravenous injection in mice intestine; format: ADME, organism-based
[10] = test system: Mus musculus; experiment: Tested for biodistribution of radioactivity after 72 hr of intravenous injection in mice liver; format: ADME, organism-based
[11] = test system: Mus musculus; experiment: Tested for biodistribution of radioactivity after 72 hr of intravenous injection in mice intestine; format: ADME, organism-based
[12] = test system: Mus musculus; experiment: Tested for biodistribution of radioactivity after 24 hr of intravenous injection in mice intestine; format: ADME, organism-based
[13] = test system: Mus musculus; experiment: Tested for biodistribution of radioactivity after 48 hr of intravenous injection in mice liver; format: ADME, organism-based
[14] = test system: Mus musculus; experiment: Tested for biodistribution of radioactivity after 72 hr of intravenous injection in mice kidneys; format: ADME, organism-based
[15] = test system: Mus musculus; experiment: Tested for biodistribution of radioactivity after 1 hr of intravenous injection in mice liver; format: ADME, organism-based
[16] = test system: Mus musculus; experiment: Tested for biodistribution of radioactivity after 10 min of intravenous injection in mice stomach; format: ADME, organism-based
[17] = test system: Mus musculus; experiment: Tested for biodistribution of radioactivity after 48 hr of intravenous injection in mice stomach; format: ADME, organism-based
[18] = test system: Mus musculus; experiment: Tested for biodistribution of radioactivity after 3h of intravenous injection in mice liver; format: ADME, organism-based
[19] = test system: Mus musculus; experiment: Tested for biodistribution of radioactivity after 48 hr of intravenous injection in mice spleen; format: ADME, organism-based
[20] = test system: Mus musculus; experiment: Tested for biodistribution of radioactivity after 6 hr of intravenous injection in mice blood; format: ADME, organism-based
[21] = test system: Mus musculus; experiment: Tested for biodistribution of radioactivity after 24 hr of intravenous injection in mice liver; format: ADME, organism-based
[22] = test system: Mus musculus; experiment: Tested for biodistribution of radioactivity after 10 min of intravenous injection in mice intestine; format: ADME, organism-based
[23] = test system: Mus musculus; experiment: Tested for biodistribution of radioactivity after 24 hr of intravenous injection in mice lung; format: ADME, organism-based
[24] = test system: Mus musculus; experiment: Tested for biodistribution of radioactivity after 48 hr of intravenous injection in mice neck; format: ADME, organism-based
[25] = test system: Mus musculus; experiment: Tested for biodistribution of radioactivity after 24 hr of intravenous injection in mice feces; format: ADME, organism-based
[26] = test system: Mus musculus; experiment: Tested for biodistribution of radioactivity after 10 min of intravenous injection in mice lung; format: ADME, organism-based
[27] = test system: Mus musculus; experiment: Tested for biodistribution of radioactivity after 3h of intravenous injection in mice stomach; format: ADME, organism-based
[28] = test system: Mus musculus; experiment: Tested for biodistribution of radioactivity after 3h of intravenous injection in mice blood; format: ADME, organism-based
[29] = test system: Mus musculus; experiment: Tested for biodistribution of radioactivity after 72 hr of intravenous injection in mice spleen; format: ADME, organism-based
[30] = test system: Mus musculus; experiment: Tested for biodistribution of radioactivity after 3h of intravenous injection in mice kidneys; format: ADME, organism-based, Kidney
[31] = test system: Mus musculus; experiment: Tested for biodistribution of radioactivity after 1 hr of intravenous injection in mice intestine; format: ADME, organism-based
[32] = test system: Mus musculus; experiment: Tested for biodistribution of radioactivity after 1 hr of intravenous injection in mice lung; format: ADME, organism-based
[33] = test system: Mus musculus; experiment: Tested for biodistribution of radioactivity after 10 min of intravenous injection in mice blood; format: ADME, organism-based
[34] = test system: Mus musculus; experiment: Tested for biodistribution of radioactivity after 72 hr of intravenous injection in mice stomach; format: ADME, organism-based
[35] = test system: Mus musculus; experiment: Tested for biodistribution of radioactivity after 6 hr of intravenous injection in mice intestine; format: ADME, organism-based
[36] = test system: Mus musculus; experiment: Tested for biodistribution of radioactivity after 48 hr of intravenous injection in mice lung; format: ADME, organism-based
[37] = test system: Mus musculus; experiment: Tested for biodistribution of radioactivity after 72 hr of intravenous injection in mice lung; format: ADME, organism-based
[38] = test system: Mus musculus; experiment: Tested for biodistribution of radioactivity after 24 hr of intravenous injection in mice kidneys; format: ADME, organism-based, Kidney
[39] = test system: Mus musculus; experiment: Tested for biodistribution of radioactivity after 1 hr of intravenous injection in mice spleen; format: ADME, organism-based
[40] = test system: Mus musculus; experiment: Tested for biodistribution of radioactivity after 3h of intravenous injection in mice spleen; format: ADME, organism-based
[41] = test system: Mus musculus; experiment: Tested for biodistribution of radioactivity after 10 min of intravenous injection in mice kidneys; format: ADME, organism-based
[42] = test system: Mus musculus; experiment: Tested for biodistribution of radioactivity after 72 hr of intravenous injection in mice neck; format: ADME, organism-based
[43] = test system: Mus musculus; experiment: Tested for biodistribution of radioactivity after 1 hr of intravenous injection in mice stomach; format: ADME, organism-based
[44] = test system: Mus musculus; experiment: Tested for biodistribution of radioactivity after 48 hr of intravenous injection in mice kidneys; format: ADME, organism-based
[45] = test system: Mus musculus; experiment: Tested for biodistribution of radioactivity after 6 hr of intravenous injection in mice spleen; format: ADME, organism-based
[46] = test system: Mus musculus; experiment: Tested for biodistribution of radioactivity after 6 hr of intravenous injection in mice neck; format: ADME, organism-based
[47] = test system: Mus musculus; experiment: Tested for biodistribution of radioactivity after 10 min of intravenous injection in mice neck; format: ADME, organism-based
[48] = test system: Mus musculus; experiment: Tested for biodistribution of radioactivity after 10 min of intravenous injection in mice liver; format: ADME, organism-based
[49] = test system: Mus musculus; experiment: Tested for biodistribution of radioactivity after 24 hr of intravenous injection in mice urine; format: ADME, organism-based
[50] = test system: Mus musculus; experiment: Tested for biodistribution of radioactivity after 24 hr of intravenous injection in mice neck; format: ADME, organism-based
[51] = test system: Mus musculus; experiment: Tested for biodistribution of radioactivity after 48 hr of intravenous injection in mice intestine; format: ADME, organism-based
[52] = test system: Mus musculus; experiment: Tested for biodistribution of radioactivity after 6 hr of intravenous injection in mice kidneys; format: ADME, organism-based, Kidney
[53] = test system: Mus musculus; experiment: Tested for biodistribution of radioactivity after 24 hr of intravenous injection in mice spleen; format: ADME, organism-based
[54] = test system: Mus musculus; experiment: Tested for biodistribution of radioactivity after 6 hr of intravenous injection in mice liver; format: ADME, organism-based
[55] = test system: Mus musculus; experiment: Tested for biodistribution of radioactivity after 10 min of intravenous injection in mice spleen; format: ADME, organism-based
[56] = test system: Mus musculus; experiment: Tested for biodistribution of radioactivity after 72 hr of intravenous injection in mice blood; format: ADME, organism-based
[57] = test system: Mus musculus; experiment: Tested for biodistribution of radioactivity after 48 hr of intravenous injection in mice blood; format: ADME, organism-based
[58] = test system: Mus musculus; experiment: Tested for biodistribution of radioactivity after 1 hr of intravenous injection in mice neck; format: ADME, organism-based

N[C@@H](CSC1CC(=O)N(CCOC(=O)CNC(=O)c2cccc(I)c2)C1=O)C(=O)O (stereo partly drawn)
Dose/g [1]: 29.3% | Dose/organ [2]: 0.28% | Dose/organ [3]: 7.6% | Dose/organ [4]: 0.84% | Dose/organ [5]: 5.35% | Dose/organ [6]: 0.51% | Dose/g [7]: 9.64% | Dose/organ [8]: 8.06% | Dose/organ [9]: 1.93% | Dose/organ [10]: 1.05% | Dose/organ [11]: 0.28% | Dose/organ [12]: 0.67% | Dose/organ [13]: 1.53% | Dose/organ [14]: 0.82% | Dose/organ [15]: 8.51% | Dose/organ [16]: 0.54% | Dose/organ [17]: 0.2% | Dose/organ [18]: 6.43% | Dose/organ [19]: 0.92% | Dose/g [20]: 20.31% | Dose/organ [21]: 2.46% | Dose/organ [22]: 0.8% | Dose/organ [23]: 4.06% | Dose/organ [24]: 0.16% | Dose/organ [25]: 0.89% | Dose/organ [26]: 10.37% | Dose/organ [27]: 1.04% | Dose/g [28]: 25.11% | Dose/organ [29]: 0.49% | Dose/organ [30]: 5% | Dose/organ [31]: 1.96% | Dose/organ [32]: 7.08% | Dose/organ [33]: 33.64% | Dose/organ [34]: 0.14% | Dose/organ [35]: 1.27% | Dose/organ [36]: 1.98% | Dose/organ [37]: 1.52% | Dose/organ [38]: 2.08% | Dose/organ [39]: 4.84% | Dose/organ [40]: 3.67% | Dose/organ [41]: 6.08% | Dose/organ [42]: 0.09% | Dose/organ [43]: 0.92% | Dose/organ [44]: 1.12% | Dose/organ [45]: 3.19% | Dose/organ [46]: 0.45% | Dose/organ [47]: 0.34% | Dose/organ [48]: 9.81% | Dose/organ [49]: 23.39% | Dose/organ [50]: 0.32% | Dose/organ [51]: 0.4% | Dose/organ [52]: 4.45% | Dose/organ [53]: 1.41% | Dose/organ [54]: 5.39% | Dose/organ [55]: 7.15% | Dose/g [56]: 4.22% | Dose/g [57]: 5.78% | Dose/organ [58]: 0.75%
